# Data taken from US9434994B2, “Methods for prediction of clinical outcome to epidermal growth factor receptor inhibitors by non-small cell lung cancer patients” (The Regents of the University of Colorado, a body corporate, priority 2004, dated 2016).
# “And” between values parts separate entries of the source, which are not always exact repeats. Equal entries are not always repeated. Where two headings read alike, the source gives them in different places.
# System: advanced non-small-cell lung cancer patients
# [1] = EGFR FISH Group 1 (disomy to low polysomy)
# [2] = EGFR FISH Group 2 (high polysomy, amplification)
# [3] = EGFR FISH- and/or P-Akt- (any negative)
# [4] = EGFR IHC- and/or P-Akt- (any negative)
# [5] = EGFR mutation- and/or P-Akt- (any negative)
# [6] = HER2 FISH+ and/or EGFR IHC+ (other three groups combined)
# Experimental: Eligibility included histologically confirmed NSCLC patients with measurable, locally advanced or metastatic disease, who had progressed or relapsed after chemotherapy, and patients ineligible for chemotherapy because they were elderly, had poor performance status, or comorbid medical condition. Before trial inclusion, smoking status was assessed and patients were classified as never, former (smoking cessation >6 months prior to trial inclusion), or current smokers (cessation <6 months before trial inclusion or active smoker).
# Patients were evaluated for response according to the RECIST criteria (30). Tumor response was assessed by computer tomography scan every two months, with a confirmatory evaluation to be repeated in responding patients at least 4 weeks after the initial determination of response. […] Survival (OS) was calculated from the date of therapy initiation to the date of death or last contact.
# Differences between the FISH groups were compared by Fisher's exact test or χ^2 test for qualitative variables and by t-student test or ANOVA for continuous variables. Normality of the distribution was assessed by Kolmogorov-Smirnov test. […] Risk factors associated with survival were evaluated using Cox's proportional-hazards regression model with a step-down procedure (33). Only those variables with significant results in univariate analysis were included in the multivariate analysis. The criteria for variable removal was the likelihood ratio statistic based on the maximum partial likelihood estimated (default p-value=0.10 for removal from the model).
# Complete clinical information and tissue blocks were available from 80 out of 106 patients enrolled in the Akt clinical trial (Cappuzzo et al., ibid.), and from an additional 22 patients in the Expanded Access Study who were treated consecutively at the end of the Akt study and followed in the same way as patients in the Akt trial.
# Eligibility for both studies included histologically confirmed NSCLC with measurable, locally advanced or metastatic disease, progressing or relapsing after chemotherapy or with medical contraindications for chemotherapy. Patients had performance status ranging from grade 0 to 2. Performance status was defined according to Eastern Cooperative Oncology Group (Oken et al., 1982) and considered grade 0 when the patient was fully active and able to perform all pre-disease activities without restriction, grade 1 when the patient was restricted in physically strenuous activity but ambulatory and able to perform work of a light or sedentary nature, and grade 2 when the patient was ambulatory and capable of all self-care but unable to perform any work activities.
# Tumor response was assessed by computer tomography scan after 2 months, with a confirmatory evaluation to be repeated in responders and in patients with stable disease at least 4 weeks after the initial determination of response. […] Survival was calculated from the date of therapy initiation to the date of death or to the date of last contact.
# Differences between and among groups were compared using Fisher's exact test or Pearson's chi square test for qualitative variables and using student's t test or analysis of variance for continuous variables. Normality of the distribution was assessed using the Kolmogorov-Smirnov test (Curiel et al., 1990).
smiles,measurement,setting,value
COc1cc2ncnc(Nc3ccc(F)c(Cl)c3)c2cc1OCCCN1CCOCC1 [gefitinib],Patients progressed at 12 months,EGFR FISH Group 1,91%
same,Two-year survival rate,EGFR FISH Group 1,17%
same,% Patients without disease progression at 12 months,[1],8.7%
same,Complete and Partial Response,[1],2.9%
same,Median Time to Progression,[1],2.5 months
same,One-year Survival Rate,[1],36.2%
same,Progressive Disease,[1],73.9%
same,Stable Disease,[1],23.2%
same,Patients progressed at 12 months,EGFR FISH Group 2,61%
same,Two-year survival rate,EGFR FISH Group 2,40%
same,% Patients without disease progression at 12 months,[2],39.4%
same,Complete and Partial Response,[2],36% and 36.4%
same,Disease Control Rate,[2],66.7%
same,Median Time to Progression,[2],6.3 months
same,One-year Survival Rate,[2],63.6%
same,Progressive Disease,[2],33.3%
same,Stable Disease,[2],30.3%
same,% Patients without disease progression at 12 months,EGFR FISH disomy,8.3%
same,Complete and Partial Response,EGFR FISH disomy,no responders
same,Median Time to Progression,EGFR FISH disomy,2.5 months
same,One-year Survival Rate,EGFR FISH disomy,38.9%
same,Progressive Disease,EGFR FISH disomy,75%
same,Stable Disease,EGFR FISH disomy,25.0%
same,% Patients without disease progression at 12 months,EGFR FISH high polysomy,35.0%
same,Disease Control Rate,EGFR FISH high polysomy,60.0%
same,Median Time to Progression,EGFR FISH high polysomy,6.6 months
same,One-year Survival Rate,EGFR FISH high polysomy,65.0%
same,Progressive Disease,EGFR FISH high polysomy,40%
same,Stable Disease,EGFR FISH high polysomy,35%
same,% Patients without disease progression at 12 months,EGFR FISH high trisomy,100%
same,Complete and Partial Response,EGFR FISH high trisomy,100%
same,Disease Control Rate,EGFR FISH high trisomy,100%
same,Median Overall Survival,EGFR FISH high trisomy,13.7 months
same,One-year Survival Rate,EGFR FISH high trisomy,100%
same,% Patients without disease progression at 12 months,EGFR FISH low polysomy,0%
same,Complete and Partial Response,EGFR FISH low polysomy,no responders
same,Disease Control Rate,EGFR FISH low polysomy,14.3%
same,Median Overall Survival,EGFR FISH low polysomy,3.0 months
same,Median Time to Progression,EGFR FISH low polysomy,2.1 months
same,Progressive Disease,EGFR FISH low polysomy,86% and 85.7%
same,Stable Disease,EGFR FISH low polysomy,14.3%
same,% Patients without disease progression at 12 months,EGFR FISH low trisomy,5.9%
same,Complete and Partial Response,EGFR FISH low trisomy,no responders
same,Disease Control Rate,EGFR FISH low trisomy,29.4%
same,Median Overall Survival,EGFR FISH low trisomy,10.2 months
same,Median Time to Progression,EGFR FISH low trisomy,3.6 months
same,One-year Survival Rate,EGFR FISH low trisomy,41.2%
same,Progressive Disease,EGFR FISH low trisomy,71% and 70.6%
same,Stable Disease,EGFR FISH low trisomy,29.4%
same,1-year Cumulative Survival ± SD,EGFR FISH+/P-Akt+,33 ± 9%
same,Median Survival,EGFR FISH+/P-Akt+,18.7 months
same,1-year Cumulative Survival ± SD,EGFR FISH+/P-Akt-,75 ± 22%
same,Median Time to Progression,EGFR FISH+/P-Akt-,1.1 months
same,Objective Response,EGFR FISH+/P-Akt-,0%
same,Disease Control Rate,[3],28% and 19/27%
same,Median Time to Progression,[3],2.5 months
same,Objective Response,[3],3% and 2/3%
same,Median Time to Progression,EGFR FISH-/P-Akt+,2.6 months
same,Objective Response,EGFR FISH-/P-Akt+,5% and 2/5%
same,1-year Cumulative Survival ± SD,EGFR FISH-/P-Akt-,57 ± 9%
same,Disease Control Rate,EGFR FISH-/P-Akt-,6/22%
same,Median Time to Progression,EGFR FISH-/P-Akt-,2.4 months
same,Objective Response,EGFR FISH-/P-Akt-,0%
same,1-year survival,EGFR IHC score 0-99,27% and 27 ± 10%
same,MS (median overall survival),EGFR IHC score 0-99,4.5 mo
same,PD (progressive disease),EGFR IHC score 0-99,19 (95%)
same,TTP,EGFR IHC score 0-99,2.1 mo
same,1-year survival,EGFR IHC score 100-199,35% and 35 ± 10%
same,MS (median overall survival),EGFR IHC score 100-199,5.3 mo
same,OR (objective response),EGFR IHC score 100-199,2 (10%)
same,TTP,EGFR IHC score 100-199,2.3 mo
same,MS (median overall survival),EGFR IHC score 200-299,15.2 mo
same,OR (objective response),EGFR IHC score 200-299,4 (26%)
same,PD (progressive disease),EGFR IHC score 200-299,5 (33%)
same,MS (median overall survival),EGFR IHC score 300-400,11.3 mo
same,PD (progressive disease),EGFR IHC score 300-400,21 (49%)
same,TTP,EGFR IHC score 300-400,4.5 mo
same,1-year survival,EGFR IHC+ (≧200),48 ± 7%
same,MS (median overall survival),EGFR IHC+ (≧200),11.5 mo
same,TTP,EGFR IHC+ (≧200),5.2 mo
same,Median Time to Progression,EGFR IHC+/P-Akt+,6.2 months
same,1-year Cumulative Survival ± SD,EGFR IHC+/P-Akt-,35 ± 12%
same,Median Time to Progression,EGFR IHC+/P-Akt-,1.8 months
same,Objective Response,EGFR IHC+/P-Akt-,0%
same,1-year survival,EGFR IHC- (<200),31 ± 7%
same,MS (median overall survival),EGFR IHC- (<200),5.0 mo
same,TTP,EGFR IHC- (<200),2.3 mo
same,1-year Cumulative Survival ± SD,[4],35 ± 7%
same,Median Time to Progression,[4],2.3 months
same,Objective Response,[4],4% and 2/3%
same,Disease Control Rate,EGFR IHC-/P-Akt+,7/27%
same,Median Time to Progression,EGFR IHC-/P-Akt+,2.3 months
same,Objective Response,EGFR IHC-/P-Akt+,2/8%
same,1-year Cumulative Survival ± SD,EGFR IHC-/P-Akt-,54 ± 8%
same,Disease Control Rate,EGFR IHC-/P-Akt-,1/7%
same,Median Survival,EGFR IHC-/P-Akt-,4.2 months
same,Median Time to Progression,EGFR IHC-/P-Akt-,2.0 months
same,Objective Response,EGFR IHC-/P-Akt-,0%
same,Median Survival,EGFR Mutation+/P-Akt+,20.8 months
same,Median Time to Progression,EGFR Mutation+/P-Akt+,11.2 months
same,Disease Control Rate,EGFR Mutation+/P-Akt-,0%
same,Median Survival,EGFR Mutation+/P-Akt-,3.1 months
same,Median Time to Progression,EGFR Mutation+/P-Akt-,1.1 months
same,Objective Response,EGFR Mutation+/P-Akt-,0%
same,1-year Cumulative Survival ± SD,EGFR Mutation-/P-Akt+,50 ± 35%
same,Median Time to Progression,EGFR Mutation-/P-Akt+,2.7 months
same,Objective Response,EGFR Mutation-/P-Akt+,4/9%
same,1-year Cumulative Survival ± SD,EGFR Mutation-/P-Akt-,65 ± 14%
same,Disease Control Rate,EGFR Mutation-/P-Akt-,6/22%
same,Median Time to Progression,EGFR Mutation-/P-Akt-,2.4 months
same,Objective Response,EGFR Mutation-/P-Akt-,0%
same,% Patients without disease progression at 12 months,EGFR gene amplification,46.2%
same,Complete and Partial Response,EGFR gene amplification,53.8% and 54%
same,Disease Control Rate,EGFR gene amplification,76% and 76.9%
same,Median Time to Progression,EGFR gene amplification,6.0 months
same,One-year Survival Rate,EGFR gene amplification,61.5%
same,Progressive Disease,EGFR gene amplification,23.1%
same,Stable Disease,EGFR gene amplification,23.1%
same,1-year survival,EGFR mutation absent,38 ± 6
same,PD,EGFR mutation absent,50 (68%)
same,TTP,EGFR mutation absent,2.6 mo
same,1-year survival,EGFR mutation present,57 ± 13
same,MS,EGFR mutation present,20.8 mo
same,TTP,EGFR mutation present,9.9 mo
same,Disease Control Rate,[5],32% and 23/31%
same,Median Time to Progression,[5],2.6 months
same,Objective Response,[5],6% and 4/5%
same,DCR,HER2 FISH+,56.5%
same,OR,HER2 FISH+,34.8%
same,OS,HER2 FISH+,20.8 months
same,TTP,HER2 FISH+,9.05 months
same,DCR,HER2 FISH+ and/or EGFR FISH+,57.1%
same,OR,HER2 FISH+ and/or EGFR FISH+,28.6%
same,DCR,[6],51.5%
same,OR,[6],19.1%
same,OR,HER2 FISH+ and/or EGFR mutation+ (other groups combined),30.8%
same,DCR,HER2 FISH+/EGFR FISH+,76.9%
same,OR,HER2 FISH+/EGFR FISH+,53.8%
same,median OS,HER2 FISH+/EGFR FISH+,20.8 months
same,median TTP,HER2 FISH+/EGFR FISH+,9.8 months
same,OR,HER2 FISH+/EGFR FISH-,21.0%
same,median TTP,HER2 FISH+/EGFR FISH-,2.3 months
same,DCR,HER2 FISH+/EGFR IHC+,76.9%
same,OR,HER2 FISH+/EGFR IHC+,53.8%
same,OS,HER2 FISH+/EGFR IHC+,20.8 months
